Results from US11129835B2, “Methods and compositions for the inhibition of PIN1” (Beth Israel Deaconess Medical Center, Inc., priority 2012, dated 2021).

Key:
full length Pin1 = biological target: T1, full length Pin1 (Homo sapiens, UniProt Q13526); experiment: single-step fluorescence polarization-based displacement assay (FP-HTS), 384-well, HF488 probe; format: binding
T1 construct: FP-HTS in a 384-well plate format with full length Pin1
Experimental: A high-throughput screen for identifying Pin1 inhibitors was developed using a single-step fluorescence polarization-based displacement assay (FP-HTS).
The FP-HTS with a 5 nM probe and 200 nM Pin1 was used to conduct a pilot screen on a selected set of chemical libraries.
(§1) The anti-cancer effect of RAs was examined to determine whether it depends on RAR in the breast cancer cells.

Pin1 = Pin1 (Homo sapiens, UniProt Q13526); experiment: PPIase assay; format: biochemical
Chain of Pin1 (Q13526 whole entry): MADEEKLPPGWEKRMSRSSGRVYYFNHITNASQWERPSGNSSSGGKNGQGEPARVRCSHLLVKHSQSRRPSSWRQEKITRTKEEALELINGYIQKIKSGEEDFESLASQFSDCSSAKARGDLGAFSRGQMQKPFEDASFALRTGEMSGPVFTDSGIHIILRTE
From the text: The anti-cancer effect of RAs was examined to determine whether it depends on RAR in the breast cancer cells. […] In the PPIase assay, Pin1 activity was blocked by either cis- or trans-RA in a dose-dependent manner.

Pin1 and DAPK1 = Pin1 and DAPK1 (Homo sapiens, UniProt Q13526); experiment: association between Pin1 and DAPK1; format: binding
Chain of Pin1 and DAPK1 (Q13526 whole entry): as above

SKBR3 = experiment: cell viability of breast cancer cell lines; format: cell-based
From the text: (§2) This discrepancy between cell lines was correlated with the RAs' ability to suppress Pin1 expression. Pin1 level was decreased by treatment of RAs in drugs-responsive SKBR3 and T47D, but not in drugs-irresponsive normal cells, MCF10A, in which Pin1 target protein, cyclin D1, served as biomarker of in vivo Pin1 activity.

T47D = experiment: cell viability of breast cancer cell lines; format: cell-based
From the text: as §2

MCF10A = experiment: cell viability, normal cell line; format: cell-based
From the text: as §2

breast cancer cells = experiment: RARa knockdown rescue of cis-RA-mediated cell death; format: cell-based
From the text: as §1

T1 sequence (Q13526 whole entry): as above

CC1=C(/C=C/C(C)=C/C=C/C(C)=C\C(=O)O)C(C)(C)CCC1 [cis-RA, 13-cis-retinoic acid]
pilot screen hit ranking by Z-score (full length Pin1; 5 nM probe and 200 nM Pin1): top inhibitory chemical
Pin1 inhibition in the FP assay (full length Pin1; cis-RA compared with trans-RA): eventually catch up with trans-RA in the long-term incubation with Pin1
Pin1 activity in the PPIase assay (Pin1): blocked
association between Pin1 and DAPK1 (Pin1 and DAPK1): blocked the association between Pin1 and DAPK1 in a dose-dependent manner
IC50, cell viability (SKBR3): nano-molar range
IC50, cell viability (T47D): nano-molar range
cell viability (MCF10A): remained unaffected
cell death after RARa knockdown (breast cancer cells): only partially rescue
